Test results taken from US20230210857A1, “RESPIRATORY STIMULANT PARENTERAL FORMULATIONS” (Enalare Therapeutics Inc., priority 2021, published 2023).

Experiments:
Assay type in all cases: physicochemical
[1] = Stability as a function of pH 2-6 (1 mg/mL, 0.25 mg/mL at pH 6, in ~10 mM citric acid/glycine buffers)
Excerpt: Thus, the inventors believe that the solubility of the drug becomes inadequate for the intended product concentration above about pH 3.6. However, the drug product will be diluted prior to infusion and then intravenously infused slowly, and such a low pH is unlikely to present a safety or patient comfort issue, but stability of the drug in solution could be an issue at such a low pH. The purpose of this experiment was to assess the stability of the drug as a function of pH.
A key consideration in such an experiment is the concentration of drug and buffer used. Use of a buffer is essential since the data is meaningless if the pH shifts dramatically during the experiment. However, it is desirable to keep the buffer at minimal strength to minimize the impact of buffer catalysis. Buffer strength can be minimized by keeping the drug concentration low. Keeping the drug concentration low also minimizes confounding the data with solubility limits (i.e. the drug precipitating out of solution).
Methodology: Buffer solutions containing ˜10 mM each of citric acid and glycine in the pH range 2-6 were prepared by titrating 250 mL of a single stock containing both buffer agents with 1N NaOH/1N HCl and removing 50 mL aliquots at predetermined pH values. Solutions at 1 mg/mL were prepared in buffers of pH 2-5 by dissolving ˜25 mg of Compounds having the active agent (N-(4,6-Bis-n-propylamino-[1,3,5]triazin-2-yl)-O,N-dimethyl-hydroxylamine) H2SO4 in ˜23 mL of a given buffer, adjusting the pH to the target and making up the volume to 25.0 mL in a volumetric flask. The solution at pH 6 was prepared similarly but at a lower drug concentration of 0.25 mg/mL using 6.68 mg of Compounds having the active agent (N-(4,6-Bis-n-propylamino-[1,3,5]triazin-2-yl)-O,N-dimethyl-hydroxylamine) H2SO4.
Each of the buffered solutions were filtered through a 0.2 μm polyether sulfone syringe filter into a volumetric flask, which had been previously rinsed with 70% ethanol and dried in a laminar flow hood. Following filtration, each buffered solution was split into 10 aliquots (9 aliquots of 2.5 mL each and 1 aliquot of 2 mL) in 5 mL serum vials previously rinsed with 70% ethanol and dried in a laminar flow hood. Filtration and preparation of aliquots were performed in a laminar flow hood. The 2 mL aliquot of each buffered solution was submitted for T0 analysis (HPLC assay and related substances). Of the nine 2.5 mL aliquots, three aliquots were stored at each 40° C. and 60° C., two aliquots were stored at 25° C. and one aliquot was stored at −70° C. Samples stored at 40° C. and at 60° C. were evaluated for physical appearance, pH, assay and related substances after 1 week, 2 weeks and 4 weeks of storage. Samples at 25° C. and −70° C. served as controls to be analyzed if necessary.
The pH values for all the samples remained relatively constant for up to 4 weeks at both storage temperatures.

[2] = Stability as a function of pH, narrow range pH 2-3.6 (1 mg/mL in ~10 mM citric acid/glycine buffers)
Procedure: Accordingly, the stability of the compound was evaluated in the pH range 2-3.6.
Methodology: Buffer solutions containing ˜10 mM each of citric acid and glycine in the pH range 2-3.6 were prepared by titrating 250 mL of a single stock containing both buffer agents with 1N NaOH/1N HCl and removing 50 mL aliquots at predetermined pH values. Solutions at 1 mg/mL were prepared in the buffers by dissolving ˜25 mg of compound in ˜23 mL of a given buffer, adjusting the pH to the target and making up the volume to 25.0 mL in a volumetric flask.
Each of the buffered solutions was filtered through a 0.2 μm polyether sulfone syringe filter into a volumetric flask previously rinsed with 70% ethanol and dried in a laminar flow hood. Following filtration, each buffered solution was split into 9 aliquots in 5 mL serum vials previously rinsed with 70% ethanol and dried in a laminar flow hood. Filtration and preparation of aliquots were performed in a laminar flow hood. Of the nine aliquots, three aliquots were stored at each 40° C. and 60° C., two aliquots were stored at 25° C. and one aliquot was submitted for T0 testing. Samples were evaluated for pH, assay and related substances at T0 and, following 1 week, 2 weeks and 4 weeks of storage at 40° C. and 60° C. Samples stored at 25° C. served as controls to be analyzed if necessary.
This means that any increase in the pH of the formulation leads to an improvement in stability within the pH range in which an aqueous formulation is feasible.

[3] = pH solubility study (100 mM citric acid, shaken overnight at room temperature, HPLC assay)
Procedure: A pH solubility study was performed to assess the feasibility of formulating the active agent (N-(4,6-Bis-n-propylamino-[1,3,5]triazin-2-yl)-O,N-dimethyl-hydroxylamine) as a simple buffered solution at a reasonable pH for an IV formulation.
Methodology: The active agent (N-(4,6-Bis-n-propyl amino-[1,3,5]triazin-2-yl)-O,N-dimethyl-hydroxylamine) and H2SO4 solution of concentration ˜107 mg/mL in 100 mM citric acid at pH 2.5 was prepared. About 150 μL aliquots of this solution were transferred into 6 separate glass HPLC vials. All the samples, including the solution at pH 2.5, were shaken overnight at room temperature using a gyratory shaker. After shaking, the samples were evaluated visually for the presence of precipitate and were then spin filtered through 0.45 μm syringe tip filters (4 mm diameter) at 3000 rpm for 20 min. The final pH values of the filtrates were measured. The filtrates were then diluted appropriately and analyzed for the active agent (N-(4,6-Bis-n-propylamino-[1,3,5]triazin-2-yl)-O,N-dimethyl-hydroxylamine). H2SO4 concentration using the HPLC assay.
Results: The pH values of the samples prior to and after shaking overnight, appearance as well as concentrations of samples are shown in Table 12.

For `CCCNc1nc(NCCC)nc(N(C)OC)n1` [active agent, N-(4,6-Bis-n-propylamino-[1,3,5]triazin-2-yl)-O,N-dimethyl-hydroxylamine], which “solution stability versus pH (in words)” value ([1]; assay and impurities data, pH 2 compared to pH 3-6) is on record?
The value was “significantly less stable at pH 2”.

What about the Impurities ([1]; target pH 2, 40° C. 2 wk) of the same molecule?
Its Impurities is 1.48%.

What about the Impurities ([1]; target pH 2, 40° C. 4 wk) of the same molecule?
Its Impurities is 2.49%.

What about the Impurities ([1]; target pH 2, 60° C. 1 wk) of the same molecule?
Its Impurities is 3.83%.

And the Impurities ([1]; target pH 2, 60° C. 2 wk)?
The Impurities was 9.89%.

And the Impurities ([1]; target pH 2, 60° C. 4 wk)?
The Impurities was 14.34%.

And the Impurities ([1]; target pH 3, 40° C. 2 wk)?
The Impurities was 0.19%.

And the Impurities ([1]; target pH 3, 40° C. 4 wk)?
Its Impurities is 0.41%.

What about the Impurities ([1]; target pH 3, 60° C. 1 wk) of the same molecule?
Its Impurities is 0.71%.

What about the Impurities ([1]; target pH 3, 60° C. 4 wk) of the same molecule?
The Impurities was 2.19%.

And the Impurities ([1]; target pH 4, 40° C. 2 wk)?
Its Impurities is 0.17%.

And the Impurities ([1]; target pH 4, 40° C. 4 wk)?
The Impurities was 0.22%.

What about the Impurities ([1]; target pH 4, 60° C. 2 wk) of the same molecule?
Its Impurities is 0.52%.

What about the Impurities ([1]; target pH 4, 60° C. 4 wk) of the same molecule?
The Impurities was 1.02%.

What about the Impurities ([1]; target pH 5, 60° C. 2 wk) of the same molecule?
Its Impurities is 0.62%.

And the Impurities ([1]; target pH 5, 60° C. 4 wk)?
Its Impurities is 1.10%.

And the Impurities ([1]; target pH 6, 40° C. 2 wk)?
Its Impurities is 0.25%.

And the Impurities ([1]; target pH 6, 40° C. 4 wk)?
Its Impurities is 0.28%.

And the Impurities ([1]; target pH 6, 60° C. 4 wk)?
Its Impurities is 1.65%.

And the Assay ([2]; target pH 2.0, 60° C. 4 wk)?
Its Assay is 0.786.

And the Impurities ([2]; target pH 2.7, 60° C. 4 wk)?
Its Impurities is 3.9.

And the pH ([2]; target pH 3.0, 60° C. 4 wk)?
The pH was 3.00.

What about the Assay ([2]; target pH 3.6, 60° C. 2 wk) of the same molecule?
Its Assay is 0.958.

And the “Active Agent · H2SO4 Concentration” value ([3]; pH 2.42)?
Its value is 104.1 mg/mL.

What about the “Active Agent · H2SO4 Concentration” value ([3]; pH 3) of the same molecule?
Its value is 99.8 mg/mL.

And the “Active Agent · H2SO4 Concentration” value ([3]; pH 3.51)?
The value was 101.6 mg/mL.

And the “Appearance after Shaking” value ([3]; target pH 2.5)?
The value was “Clear solution”.

What about the “Appearance after Shaking” value ([3]; target pH 3.0) of the same molecule?
Its value is “Clear solution”.

And the “Appearance after Shaking” value ([3]; target pH 3.5)?
The value was “Clear solution”.

What about the “Appearance after Shaking” value ([3]; target pH 4.0) of the same molecule?
Its value is “Precipitate”.

What about the “Appearance after Shaking” value ([3]; target pH 4.5) of the same molecule?
Its value is “Precipitate”.

What about the “Appearance after Shaking” value ([3]; target pH 5.0) of the same molecule?
The value was “Precipitate”.

And the “Appearance after Shaking” value ([3]; target pH 5.5)?
Its value is “Precipitate”.
